In data set [1] the test system is HCT-116. Description: cells. The conditions noted are these: Homo sapiens.
Description: Antiproliferative activity against human HCT-116 cells assessed as inhibition of cell growth measured after 22 to 70 hrs by CCK-8 assay
For data set [2], the system named is HepG2. Description: cells. As to conditions: Homo sapiens.
Description: Antiproliferative activity against human HepG2 cells assessed as inhibition of cell growth measured after 22 to 70 hrs by CCK-8 assay
Data set [3] deals with SK-OV-3. The data set can be described thus: cells. As to conditions: Homo sapiens.
Description: Antiproliferative activity against human SK-OV-3 cells assessed as inhibition of cell growth measured after 22 to 70 hrs by CCK-8 assay
Data set [4] relates to SK-OV-3. The data set can be described thus: Cytotoxicity against human SK-OV-3 cells assessed as inhibition of cell growth measured after 24 hrs by CCK-8 assay. It counts as toxicity, cell-based. The conditions noted are these: sk-ov-3, 24 h. A general note: Tetrazolium assays rely on reduction of a dye to a coloured formazan, in cell work by metabolically active cells.
Data set [5] relates to SK-OV-3. The data set can be described thus: cells. As to conditions: Homo sapiens, SK-OV-3, 24 h.
Description: Cytotoxicity against human SK-OV-3 cells expressing low FOXM1 assessed as inhibition of cell growth measured after 24 hrs by CCK-8 assay
The nature of data set [6]: Cytotoxicity against human FTE-187 cells assessed as inhibition of cell growth upto 50 uM measured after 24 to 48 hrs by CCK-8 assay. It counts as toxicity, cell-based. The conditions noted are these: fte-187, 50 µM, time 24-48 hrs.
The subject of data set [7] is SK-OV-3. Description: Down regulation of CDC25B expression in human SK-OV-3 cells by Western blotting analysis. It counts as functional, cell-based. The conditions noted are these: dose 0.1-10 µg/ml. Background: A western blot detects proteins with antibodies after separation by electrophoresis.
Data set [8] has as its system SK-OV-3. The data set can be described thus: Down regulation of PLK1 expression in human SK-OV-3 cells by Western blotting analysis. It counts as functional, cell-based. As to conditions: dose 0.1-10 µg/ml.
For data set [9], the system named is A2780. The data set can be described thus: Cytotoxicity against human A2780 cells assessed as inhibition of cell growth measured after 24 hrs by CCK-8 assay. It counts as toxicity, cell-based. The conditions noted are these: a2780, 24 h.

pIC50: −log10 of the molar value.

Consider `c1ccc(COc2ccc(OCCOCCNC3CCCC3)cc2)cc1`, for which the pIC50 was 4.89 in data set [1], 4.60 in data set [2] and 4.61 in data set [3]. `Nc1ccc(COc2ccc(OCCOCCNC3CCCC3)cc2)cc1` had a negative-log IC50 (pIC50) in data set [3] of 4.50. In turn, `O=C(O)c1cccc(COc2ccc(OCCOCCNC3CCCC3)cc2)c1` gave a pIC50 in data set [3] of less than 4.00. As to `Cc1ccc(COc2ccc(OCCOCCNC3CCCC3)cc2)cc1`, the pIC50 in data set [3] was 4.76.

Turning to `c1ccc(COc2ccc(OCCOCCNC3CCCCCC3)cc2)cc1`, the negative-log IC50 (pIC50) in data set [3] was 5.13. Molecule `O=Cc1ccc(COc2ccc(OCCOCCNC3CCCC3)cc2)cc1` gave a pIC50 in [3] of 4.35. Against the preceding molecule, the pIC50 is 0.78 log units lower.

`Clc1ccc(COc2ccc(OCCOCCNC3CCCC3)cc2)cc1` had a pIC50 in data set [3] of 5.12. In turn, `O=[N+]([O-])c1ccc(COc2ccc(OCCOCCNC3CCCC3)cc2)cc1` showed a pIC50 in [3] of 4.69. Consider `COc1ccc(OCCOCCNC2CCCC2)cc1`, for which, in data set [3], the negative-log IC50 (pIC50) was 4.00. In turn, `COC(=O)c1ccccc1COc1ccc(OCCOCCNC2CCCC2)cc1` gave a negative-log IC50 (pIC50) in data set [3] of less than 4.00. Same read-out and setting: the value for `COc1ccc(COc2ccc(OCCOCCNC3CCCC3)cc2)cc1` was 4.81.

`c1ccc(COc2ccc(OCCOCCNC3CCOC3)cc2)cc1` (stereo not given): the negative logarithm of the IC50 (pIC50) in data set [3] is 4.32.

With `COc1cc(OCCOCCNC2CCCC2)ccc1OCc1ccccc1`, the pIC50 in data set [3] is 4.35.

In the case of `Nc1cccc(COc2ccc(OCCOCCNC3CCCC3)cc2)c1`, the pIC50 in [3] is 4.97. `c1ccc(COc2ccc(OCCOCCNc3ccccc3)cc2)cc1` had a negative logarithm of the IC50 (pIC50) in data set [3] of less than 4.00.

For the molecule `COC(=O)c1cccc(COc2ccc(OCCOCCNC3CCCC3)cc2)c1`, the pIC50 in [3] was 4.34.

Take `Clc1ccc(COc2ccc(OCCOCCNC3CCCCC3)cc2)cc1`: the Activity result was “Toxic” in data set [4]; “Non-Toxic” in [6]; “Dose-Dependent Effect” in [7]; “Dose-Dependent Effect” in [8]; “Toxic” in [9]. Moreover, the pIC50 in [1] is 5.57; in data set [5], 4.18; in data set [2], 4.82; in data set [3] it was 5.58. Molecule `O=C(O)c1ccc(COc2ccc(OCCOCCNC3CCCC3)cc2)cc1` showed a negative-log IC50 (pIC50) in [3] of less than 4.00.

Regarding `c1ccc(COc2ccc(OCCOCCNc3cc[nH]c3)cc2)cc1`, the negative logarithm of the IC50 (pIC50) in data set [3] was 4.95. The same measure, in the same setting: the value for `c1ccc(COc2ccc(OCCOCCNC3CCCCC3)cc2)cc1` was 5.13; that for `COC(=O)c1ccc(COc2ccc(OCCOCCNC3CCCC3)cc2)cc1` was 5.16; that for `CN(C)CCOCCOc1ccc(OCc2ccccc2)cc1` was 4.93.

For `c1ccc(COc2ccc(COc3ccc(OCCOCCNC4CCCC4)cc3)cc2)cc1`, in [3], the pIC50 is 5.00. This pIC50 and that of the molecule before are within 0.2 log units of each other.

As to `c1ccc(COc2ccc(OCCOCCNC3CC3)cc2)cc1`, the pIC50 in [3] is 4.33. On the same count and under the same terms, the result for `O=[N+]([O-])c1ccccc1COc1ccc(OCCOCCNC2CCCC2)cc1` reads 5.27. On to `c1ccc(COc2ccc(COc3ccc(OCCOCCNC4CCCCC4)cc3)cc2)cc1`, for which the negative logarithm of the IC50 (pIC50) in data set [1] is 5.36; in data set [2], 4.74; in data set [3], 5.09.

On to `c1cc2c(cc1OCCOCCNC1CCCC1)CCCC2`, for which the negative logarithm of the IC50 (pIC50) in data set [3] is 4.50.

Regarding `Nc1ccccc1COc1ccc(OCCOCCNC2CCCC2)cc1`, the negative logarithm of the IC50 (pIC50) in [3] is 4.85. Regarding `c1ccc(COc2ccc(OCCOCCNc3ccncc3)cc2)cc1`, the pIC50 in data set [3] was 4.69.

`O=[N+]([O-])c1cccc(COc2ccc(OCCOCCNC3CCCC3)cc2)c1`: the negative logarithm of the IC50 (pIC50) in data set [3] is 4.81. On the same count and under the same terms, the result for `OCCOCCOCCOc1ccc(OCc2ccccc2)cc1` reads 4.23. Regarding `c1ccc(COc2ccc(OCCOCCNC3CCC3)cc2)cc1`, the pIC50 in data set [3] was 4.60. On the same count and under the same terms, the result for `c1ccc(COc2ccc(OCCOCCOC3CCCC3)cc2)cc1` reads less than 4.00.

As to `Nc1c(C(=O)Nc2ccc(F)cc2)sc2nc(-c3cccs3)cc(C(F)(F)F)c12`, the pIC50 is 4.06 in [1], 4.15 in data set [2] and 4.29 in [3].

In [3], `c1ncn(-c2ccc(OCCOCCNC3CCCC3)cc2)n1` gave a pIC50 of less than 4.00. As to `O=[N+]([O-])c1ccccc1COc1ccc(OCCOCCNC2CCCCC2)cc1`, the pIC50 was 4.95 in data set [1], 4.59 in data set [2] and 5.54 in [3]. Molecule `CC(C)(C)OC(=O)n1ccc(NCCOCCOc2ccc(OCc3ccccc3)cc2)c1` gave a pIC50 in data set [3] of 4.89. `c1ccc2cc(OCCOCCNC3CCCC3)ccc2c1`: the pIC50 in [3] is 4.39.

Take `CCOc1ccc(OCCOCCNC2CCCC2)cc1`: the negative-log IC50 (pIC50) in [3] is 4.04.

As for `COC(=O)c1ccc(COc2ccc(OCCOCCNC3CCCCC3)cc2)cc1`, the values for the pIC50 in data set [1], in [2] and in [3] were 5.28, 4.52 and 5.21, respectively. Molecule `c1ccc(COc2ccccc2OCCOCCNC2CCCC2)cc1` showed a pIC50 in [3] of 4.39.

Turning to `O=C(O)c1ccccc1COc1ccc(OCCOCCNC2CCCC2)cc1`, the pIC50 in data set [3] is less than 4.00.

One may read the pIC50 as the negative decadic logarithm of the IC50, by convention in mol/L. A high value points to a small IC50.

The values are drawn from ChEMBL document CHEMBL5247636, “Synthesis and antineoplastic activity of ethylene glycol phenyl aminoethyl ether derivatives as FOXM1 inhibitors” (Eur J Med Chem, 2022).
